Usually IC50 stands for the concentration that gives 50% inhibition. Higher therefore signals weaker potency.

We go through one compound from article PMC10336507 (Heliyon, 2023).

This test concerns the target M. SssI MTase (Spiroplasma monobiae, UniProt P15840). Kind of test: coupled fluorescence turn-off DNA methylation assay. The class given is biochemical.

Chain of M. SssI MTase (P15840 whole entry): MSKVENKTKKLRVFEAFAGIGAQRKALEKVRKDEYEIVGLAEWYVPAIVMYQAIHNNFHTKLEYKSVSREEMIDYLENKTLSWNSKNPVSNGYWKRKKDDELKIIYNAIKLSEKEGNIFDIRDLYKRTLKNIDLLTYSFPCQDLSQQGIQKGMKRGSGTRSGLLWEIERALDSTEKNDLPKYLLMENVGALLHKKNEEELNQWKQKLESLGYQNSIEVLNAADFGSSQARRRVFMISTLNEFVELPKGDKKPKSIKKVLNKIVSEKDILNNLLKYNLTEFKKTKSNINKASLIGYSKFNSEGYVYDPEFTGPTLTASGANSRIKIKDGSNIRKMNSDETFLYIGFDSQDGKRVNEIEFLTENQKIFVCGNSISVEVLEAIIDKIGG

`Nc1ncn([C@@H]2O[C@H](CO)[C@@H](O)[C@H]2O)c(=O)n1` [5-Aza, 5-Azacytidine] returned an IC50 of 3.76 µM.
